US6849612B2, “Oligonucleotide modulation of cell adhesion” (ISIS Pharmaceuticals, Inc., priority 1993, dated 2005)
Strand notation (5' to 3'): a small letter for the sugar, then the base; units joined by * are phosphorothioate-linked, units joined directly phosphodiester-linked; [ ] holds rarer units or linkages, { } end groups; capitals alone tell only the bases. d = 2'-deoxy (DNA)

Key:
ICAM-1 [1] = assay: ELISA of ICAM-1 expression in A431 cells; assay type: cell-based; settings: human epidermal carcinoma A431 cells
Method: (§1) Expression of ICAM-1, VCAM-1 and ELAM-1 on the surface of cells can be quantitated using specific monoclonal antibodies in an ELISA. Cells are grown to confluence in 96 well microtiter plates. The cells are stimulated with either interleukin-1 or tumor necrosis factor for 4 to 8 hours to quantitate ELAM-1 and 8 to 24 hours to quantitate ICAM-1 and VCAM-1. Following the appropriate incubation time with the cytokine, the cells are gently washed three times with a buffered isotonic solution containing calcium and magnesium such as Dulbecco's phosphate buffered saline (D-PBS). The cells are then directly fixed on the microtiter plate with 1 to 2% paraformaldehyde diluted in D-PBS for 20 minutes at 25° C. The cells are washed again with D-PBS three times. Nonspecific binding sites on the microtiter plate are blocked with 2% bovine serum albumin in D-PBS for 1 hour at 37° C. Cells are incubated with the appropriate monoclonal antibody diluted in blocking solution for 1 hour at 37° C. Unbound antibody is removed by washing the cells three times with D-PBS. Antibody bound to the cells is detected by incubation with a 1:1000 dilution of biotinylated goat anti-mouse IgG (Bethesda Research Laboratories, Gaithersburg, Md.) in blocking solution for 1 hour at 37° C. Cells are washed three times with D-PBS and then incubated with a 1:1000 dilution of streptavidin conjugated to β-galactosidase (Bethesda Research Laboratories) for 1 hour at 37° C. The cells are washed three times with D-PBS for 5 minutes each. The amount of β-galactosidase bound to the specific monoclonal antibody is determined by developing the plate in a solution of 3.3 mM chlorophenolred-β-D-galactopyranoside, 50 mM sodium phosphate, 1.5 mM MgCl2; pH=7.2 for 2 to 15 minutes at 37° C. The concentration of the product is determined by measuring the absorbance at 575 nm in an ELISA microtiter plate reader. […]
(§2) Cells grown in 96-well plates were washed three times with Opti-MEM (GIBCO, Grand Island, N.Y.) prewarmed to 37° C. […] ICAM-1 expression was determined as described in Example 1. […]

ICAM-1 [2] = assay: ELISA of ICAM-1 expression in primary human keratinocytes; assay type: cell-based
Method: as §1, §2

ICAM-1 [3] = assay: Immunoprecipitation of 35S-labelled ICAM-1 from A549 cells; assay type: cell-based, human; settings: 1 μM oligonucleotide
Method: The specificity of the antisense oligonucleotides ISIS 1570 and ISIS 1939 for ICAM-1 was evaluated by immunoprecipitation of ^35S-labelled proteins. A549 cells were grown to confluence in 25 cm^2 tissue culture flasks and treated with antisense oligonucleotides as described in Example 4. The cells were stimulated with interleukin-1β for 14 hours, washed with methionine-free DMEM plus 10% dialyzed fetal calf serum, and incubated for 1 hour in methionine-free medium containing 10% dialyzed fetal calf serum, 1 μM oligonucleotide and interleukin-1β as indicated. ^35S-Methionine/cysteine mixture (Tran^35S-label, purchased from ICN, Costa Mesa, Calif.) was added to the cells to an activity of 100 μCi/ml and the cells were incubated an additional 2 hours. Cellular proteins were extracted by incubation with 50 mM Tris-HCl pH 8.0, 150 mM NaCl, 1.0% NP-40, 0.5% deoxycholate and 2 mM EDTA (0.5 ml per well) at 4° C. for 30 minutes. The extracts were clarified by centrifugation at 18,000×g for 20 minutes. The supernatants were preadsorbed with 200 μl protein G-Sepharose beads (Bethesda Research Labs, Bethesda Md.) for 2 hours at 4° C., divided equally and incubated with either 5 μg ICAM-1 monoclonal antibody (purchased from AMAC Inc., Westbrook Me.) or HLA-A, B antibody (W6/32, produced by murine hybridoma cells obtained from the American Type Culture Collection, Bethesda, Md.) for 15 hours at 4° C. Immune complexes were trapped by incubation with 200 μl of a 50% suspension of protein G-Sepharose (v/v) for 2 hours at 4° C., washed 5 times with lysis buffer and resolved on an SDS-polyacrylamide gel. Proteins were detected by autoradiography.

ICAM-1 [4] = assay: ELISA of ICAM-1 cell surface expression in C8161 human melanoma cells; assay type: cell-based; settings: 15 μg/ml Lipofectin, 5 ng/ml TNF-α 16 hours
Method: (§3) ICAM-1 expression on the cell surface was measured by ELISA. Cells were treated with increasing concentrations of antisense oligonucleotides in the presence of 15 μg/ml Lipofectin for 4 hours at 37° C. ICAM-1 expression was induced by incubation with 5 ng/ml TNF-α for 16 hours. Cells were washed 3× in DPBS and fixed for 20 minutes in 2% formaldehyde. Cells were washed in DPBS, blocked with 2% BSA for 1 hour at 37° C. and incubated with ICAM-1 monoclonal antibody 84H10 (AMAC, Inc., Westbrook, Me.). Detection of bound antibody was determined by incubation with a biotinylated goat anti-mouse IgG followed by incubation with […] streptavidin and developed with chlorophenol red-β-D-galactopyranoside and quantified by absorbance at 575 nm. ICAM-1 mRNA levels were measured by Northern blot analysis.
The data were expressed as percentage of control activity, calculated as follows: (ICAM-1 expression for oligonucleotide-treated, cytokine-induced cells)−(basal ICAM-1 expression)/(ICAM-1 cytokine-induced expression)−(basal ICAM-1 expression)×100.

ICAM-1 mRNA = assay: Northern blot of ICAM-1 mRNA in C8161 cells; assay type: cell-based, human; settings: Northern blot analysis
Method: as §3

## ISIS 1570: phosphorothioate, human ICAM-1 AUG Codon (64-81), SEQ ID NO 1, TGGGAGCCATAGCGAGGC (antisense dT*dG*dG*dG*dA*dG*dC*dC*dA*dT*dA*dG*dC*dG*dA*dG*dG*dC)
ICAM-1 [1]
  inhibition of ICAM-1 expression: inhibit ICAM-1 expression
ICAM-1 [2]
  inhibition of ICAM-1 expression: inhibit ICAM-1 expression
ICAM-1 [3]; 5 units/ml interleukin-1β
  decrease of ICAM-1 synthesis: approximately 50%
ICAM-1 [4]
  cell surface expression of ICAM-1: decreased cell surface expression of ICAM-1
ICAM-1 mRNA
  ICAM-1 mRNA levels: decreased ICAM-1 mRNA levels only slightly

## ISIS 1939: P=S, human ICAM-1 3′-Untranslated (1952-1971), SEQ ID NO 15, CCCCCACCACTTCCCCTCTC (antisense dC*dC*dC*dC*dC*dA*dC*dC*dA*dC*dT*dT*dC*dC*dC*dC*dT*dC*dT*dC)
ICAM-1 [1]
  inhibition of ICAM-1 expression: inhibit ICAM-1 expression
ICAM-1 [2]
  inhibition of ICAM-1 expression: inhibit ICAM-1 expression
ICAM-1 [3]; interleukin-1β
  ICAM-1 synthesis: near background
ICAM-1 [4]
  cell surface expression of ICAM-1: decreased cell surface expression of ICAM-1
ICAM-1 mRNA
  ICAM-1 mRNA levels: markedly reduced
